Data taken from patent US20240425523A1, “Compounds for the Degradation of EGFR Kinase” (Beigene Switzerland GMBH, priority 2023, published 2024).

Tests used:
Assay type in all cases: cell-based
[1] = target: T1, EGFR L858R (BaF3-L858R cells) (Homo sapiens, UniProt P00533, L858R); experiment: Cell degradation of EGFR, HTRF assay, BaF3-L858R cells; conditions: 16 h treatment; for DC50: EGFR degradation; for Dmax: maximum percentage of degradation
T1 construct: host or cells: BaF3
Procedure, shortened: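 BaF3-L858R cells treated 16 h at 37° C, 5% CO2 with compound (top 10 uM final, 5-fold, 8 doses, 0.1% DMSO). DC50 from four-parameter fit; Dmax is maximum percent degradation.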

[2] = target: p-EGFR Del19/C797S (H1975-clone #23 cells) (Homo sapiens, UniProt P00533); experiment: Cell p-EGFR inhibition assay, HTRF, H1975-clone#23 (DEL19/C797S) cells; conditions: 16 h treatment; for Imax (%): maximum percentage of pEGFR inhibition; for IC50: pEGFR inhibition
Procedure, shortened: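 Phospho-EGFR read by overnight HTRF on lysates, normalized to DMSO-treated high control; IC50, Hill slope and Imax fitted. Compounds were applied for 16 h (10 uM top, 5-fold steps, 8 doses) to an H1975 single clone carrying only exogenous Del19/C797S EGFR after sgRNA knockout of endogenous copies.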

[3] = target: T2, p-EGFR L858R (BaF3-L858R cells) (Homo sapiens, UniProt P00533, L858R); experiment: Cell p-EGFR inhibition assay, HTRF, BaF3-L858R cells; conditions: 16 h treatment; for Imax (%): maximum percentage of pEGFR inhibition; for IC50: pEGFR inhibition
T2 construct: host or cells: BaF3
Procedure, shortened: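 BaF3-L858R cells treated 16 h at 37 °C, 5% CO2 with compound from 10 uM top, 5-fold dilutions, 8 doses, in 0.1% DMSO medium. Lysates read overnight by HTRF p-EGFR antibodies; IC50 fitted to four-parameter curve against DMSO high control.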

[4] = target: T3, EGFR-L858R/C797S (H1975-clone #8 cells) (Homo sapiens, UniProt P00533, C797S/L858R); experiment: Cell degradation of EGFR, HTRF assay, H1975-clone#8 (L858R/C797S) cells; conditions: 16 h treatment; for DC50: EGFR degradation; for Dmax: maximum percentage of degradation
T3 construct: expressed in transfected cells; host or cells: H1975 (endogenous EGFR knocked out, clone #8)

SMILES	DC50 [1]	Dmax [1]	Imax (%) [2]	IC50 [2]	Imax (%) [3]	IC50 [3]	DC50 [4]	Dmax [4]
Cc1cc2cc(n1)-c1c(C)nn(C)c1OC[C@H]1CC[C@H](C1)CN1/C(=N/C2=O)Nc2ccc(N3CCN([C@@H]4CCN(c5ccc(OC6CCC(=O)NC6=O)cc5)C[C@@H]4F)CC3)cc21 (stereo partly drawn) [Example 144, 3-(4-((3S,4R)-3-fluoro-4-(4-((7^1R,7^3S,E)-1^1,1^3,2^6-trimethyl-3-oxo-5^2,5^3-dihydro-1^1H,5^1H-9-oxa-4-aza-5(2,1)-benzo[d]imidazola-2(2,4)-pyridina-1(4,5)-pyrazola-7(1,3)-cyclopentanacyclononaphane-5^6-yl)piperazin-1-yl)piperidin-1-yl)phenoxy)piperidine-2,6-dione]	3.1 nM	73.6%	100.78%	0.97 nM	98.7%	5.5 nM	0.938 nM	84.8%
COC[C@H]1CN(c2ccc3c(c2)N2CC4CC[C@H](COc5c(c(C(F)(F)F)nn5C)-c5cc(cc(C)n5)C(=O)/N=C/2N3)C4)CCN1C1CCN(c2cc(F)c([C@H]3CCC(=O)NC3=O)c(F)c2)CC1 [Example 95, (R)-3-(4-(4-((R)-4-((7^1R,7^3S,E)-1^1,2^6-dimethyl-3-oxo-1^3-(trifluoromethyl)-5^2,5^3-dihydro-1^1H,5^1H-9-oxa-4-aza-5(2,1)-benzo[d]imidazola-2(2,4)-pyridina-1(4,5)-pyrazola-7(1,3)-cyclopentanacyclononaphane-5^6-yl)-2-(methoxymethyl)piperazin-1-yl)piperidin-1-yl)-2,6-difluorophenyl)piperidine-2,6-dione]	8.5 nM	86.5%	101%	4.5 nM	99.3%	10.8 nM	12.1 nM	79%
Cc1cc2cc(n1)-c1cnn(C)c1OC[C@H]1CC[C@H](C1)CN1/C(=N/C2=O)Nc2ccc(N3CCN(C4CCN(c5ccc([C@H]6CCC(=O)NC6=O)nc5C)CC4)[C@H](C)C3)cc21 [Example 162, 3-(5-(4-((R)-4-((7^1R,7^3S,E)-1^1,2^6-dimethyl-3-oxo-5^2,5^3-dihydro-1^1H,5^1H-9-oxa-4-aza-5(2,1)-benzo[d]imidazola-2(2,4)-pyridina-1(4,5)-pyrazola-7(1,3)-cyclopentanacyclononaphane-5^6-yl)-2-methylpiperazin-1-yl)piperidin-1-yl)-6-methylpyridin-2-yl)piperidine-2,6-dione]	4.86 nM	88.6%	95.16%	0.21 nM	93.37%	3.68 nM	3.14 nM	85.4%
Cc1cc2cc(n1)-c1c(C)nn(C)c1OC[C@H]1CC[C@H](C1)CN1/C(=N/C2=O)Nc2ccc(N3CCN(C[C@@H]4CCN(c5cc(F)c([C@H]6CCC(=O)NC6=O)c(F)c5)C4)CC3)cc21 [Example 184, (R)-3-(2,6-difluoro-4-((S)-3-((4-((7^1R,7^3S,E)-1^1,1^3,2^6-trimethyl-3-oxo-5^2,5^3-dihydro-1^1H,5^1H-9-oxa-4-aza-5(2,1)-benzo[d]imidazola-2(2,4)-pyridina-1(4,5)-pyrazola-7(1,3)-cyclopentanacyclononaphane-5^6-yl)piperazin-1-yl)methyl)pyrrolidin-1-yl)phenyl)piperidine-2,6-dione]	4.99 nM	90.1%	100.52%	2.48 nM	91.67%	1.25 nM	3.16 nM	89.3%
COC[C@H]1CN(c2ccc3c(c2)N2C[C@@H]4CC[C@H](COc5c(c(C)nn5C)-c5cc(cc(C)n5)C(=O)/N=C/2N3)C4)CCN1C1CN(C2CCN(c3cc(F)c([C@H]4CCC(=O)NC4=O)c(F)c3)CC2)C1 [Example 206, (R)-3-(2,6-difluoro-4-(4-(3-((R)-2-(methoxymethyl)-4-((7R,7^3S,E)-1^1,1^32^6-trimethyl-3-oxo-5^2,5^3-dihydro-1^1H,5^1H-9-oxa-4-aza-5(2,1)-benzo[d]imidazola-2(2,4)-pyridina-1(4,5)-pyrazola-7(1,3)-cyclopentanacyclononaphane-5^6-yl)piperazin-1-yl)azetidin-1-yl)piperidin-1-yl)phenyl)piperidine-2,6-dione]	1.1 nM	92.1%	99.52%	0.851 nM	94.08%	1.17 nM	0.54 nM	90.7%

Further lines, results first:

DC50 [1]	Dmax [1]	Imax (%) [2]	IC50 [2]	Imax (%) [3]	IC50 [3]	DC50 [4]	Dmax [4]	SMILES
2.22 nM	81.8%	101%	1 nM	106.4%	3.5 nM	1.58 nM	90.2%	Cc1cc2cc(n1)-c1c(C)nn(C)c1OC[C@H]1CC[C@H](C1)CN1/C(=N/C2=O)Nc2ccc(N3CCN([C@H]4CCN(c5cnc(C6CCC(=O)NC6=O)cc5C)CC4(F)F)CC3)cc21 (stereo partly drawn) [Example 101, 3-(5-((S)-3,3-difluoro-4-(4-((7^1R,7^3S,E)-1^1,1^3,2^6-trimethyl-3-oxo-5^2,5^3-dihydro-1^1H,5^1H-9-oxa-4-aza-5(2,1)-benzo[d]imidazola-2(2,4)-pyridina-1(4,5)-pyrazola-7(1,3)-cyclopentanacyclononaphane-5^6-yl)piperazin-1-yl)piperidin-1-yl)-4-methylpyridin-2-yl)piperidine-2,6-dione]
2.11 nM	87.4%	100.92%	0.789 nM	95.16%	4.81 nM	2.73 nM	88%	COC[C@H]1CN(c2ccc3c(c2)N2C[C@@H]4CC[C@H](COc5c(c(C)nn5CCO)-c5cc(cc(C)n5)C(=O)/N=C/2N3)C4)CCN1C1CCN(c2cc(F)c([C@H]3CCC(=O)NC3=O)c(F)c2)CC1 [Example 156, (R)-3-(2,6-difluoro-4-(4-((R)-4-((7^1R,7^3S,E)-1^1-(2-hydroxyethyl)-1^3,2^6-dimethyl-3-oxo-5^2,5^3-dihydro-1^1H,5^1H-9-oxa-4-aza-5(2,1)-benzo[d]imidazola-2(2,4)-pyridina-1(4,5)-pyrazola-7(1,3)-cyclopentanacyclononaphane-5^6-yl)-2-(methoxymethyl)piperazin-1-yl)piperidin-1-yl)phenyl)piperidine-2,6-dione]
2.04 nM	81.5%	100.8%	2.2 nM	97.1%	3.5 nM	2.28 nM	88.7%	COC[C@H]1CN(c2ccc3c(c2)N2CC4CC[C@H](COc5c(c(C)nn5C)-c5cc(cc(C)n5)C(=O)/N=C/2N3)C4)CCN1C1CCN(c2cc(F)c([C@H]3CCC(=O)NC3=O)c(F)c2)CC1 [Example 91, (R)-3-(2,6-difluoro-4-(4-((R)-2-(methoxymethyl)-4-((7R,7^3S,E)-1^1,1^3,2^6-trimethyl-3-oxo-5^2,5^3-dihydro-1^1H,5^1H-9-oxa-4-aza-5(2,1)-benzo[d]imidazola-2(2,4)-pyridina-1(4,5)-pyrazola-7(1,3)-cyclopentanacyclononaphane-5^6-yl)piperazin-1-yl)piperidin-1-yl)phenyl)piperidine-2,6-dione]
